Assays:
[1] = target: Casein kinase I isoform delta (Homo sapiens, UniProt P48730); assay: Selectivity interaction (KinomeScan (DiscoverX)) EUB0000229b CSNK1D; settings: at 10 µM
[2] = target: T1, Serine/threonine-protein kinase D3 (Homo sapiens) (UniProt O94806); assay: Selectivity interaction (ProQinase) EUB0000171b PRKD3
T1 sequence (whole entry): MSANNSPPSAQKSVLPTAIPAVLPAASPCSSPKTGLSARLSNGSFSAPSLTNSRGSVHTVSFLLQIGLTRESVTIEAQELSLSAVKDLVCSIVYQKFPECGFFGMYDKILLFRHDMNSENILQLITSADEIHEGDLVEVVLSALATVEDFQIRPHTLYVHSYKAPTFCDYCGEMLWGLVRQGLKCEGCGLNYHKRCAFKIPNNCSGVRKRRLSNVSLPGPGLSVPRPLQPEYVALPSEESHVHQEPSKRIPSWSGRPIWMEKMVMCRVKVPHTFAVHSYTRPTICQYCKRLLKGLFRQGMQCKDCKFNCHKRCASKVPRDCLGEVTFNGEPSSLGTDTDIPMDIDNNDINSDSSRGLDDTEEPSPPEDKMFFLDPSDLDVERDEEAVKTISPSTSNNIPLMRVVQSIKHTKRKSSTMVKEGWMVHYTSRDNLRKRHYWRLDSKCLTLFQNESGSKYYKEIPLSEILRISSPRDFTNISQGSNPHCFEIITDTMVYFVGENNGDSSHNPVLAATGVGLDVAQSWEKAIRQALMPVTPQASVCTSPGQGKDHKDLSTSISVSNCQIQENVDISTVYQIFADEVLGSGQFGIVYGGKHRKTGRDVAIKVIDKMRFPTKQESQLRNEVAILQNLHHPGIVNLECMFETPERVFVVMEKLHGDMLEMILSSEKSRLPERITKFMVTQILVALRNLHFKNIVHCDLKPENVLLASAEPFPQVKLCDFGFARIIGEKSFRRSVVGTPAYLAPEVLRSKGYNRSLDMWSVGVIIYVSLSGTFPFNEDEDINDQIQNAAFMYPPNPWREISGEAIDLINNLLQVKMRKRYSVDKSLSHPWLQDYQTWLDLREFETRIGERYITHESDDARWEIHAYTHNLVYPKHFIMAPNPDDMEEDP

[3] = target: Serine/threonine-protein kinase 38-like (Homo sapiens) (UniProt Q9Y2H1); assay: Selectivity interaction (ActivX KiNativ screen (ex vivo kinase selectivity in human PBMCs)) EUB0001619a STK38L; format: cell-based; settings: PBMC, at 1 µM
[4] = target: T2, Eukaryotic elongation factor 2 kinase (Homo sapiens) (UniProt O00418); assay: Selectivity interaction (SelectScreen profiling (Invitrogen)) EUB0000607a EEF2K; settings: at 2 µM
T2 sequence (whole entry): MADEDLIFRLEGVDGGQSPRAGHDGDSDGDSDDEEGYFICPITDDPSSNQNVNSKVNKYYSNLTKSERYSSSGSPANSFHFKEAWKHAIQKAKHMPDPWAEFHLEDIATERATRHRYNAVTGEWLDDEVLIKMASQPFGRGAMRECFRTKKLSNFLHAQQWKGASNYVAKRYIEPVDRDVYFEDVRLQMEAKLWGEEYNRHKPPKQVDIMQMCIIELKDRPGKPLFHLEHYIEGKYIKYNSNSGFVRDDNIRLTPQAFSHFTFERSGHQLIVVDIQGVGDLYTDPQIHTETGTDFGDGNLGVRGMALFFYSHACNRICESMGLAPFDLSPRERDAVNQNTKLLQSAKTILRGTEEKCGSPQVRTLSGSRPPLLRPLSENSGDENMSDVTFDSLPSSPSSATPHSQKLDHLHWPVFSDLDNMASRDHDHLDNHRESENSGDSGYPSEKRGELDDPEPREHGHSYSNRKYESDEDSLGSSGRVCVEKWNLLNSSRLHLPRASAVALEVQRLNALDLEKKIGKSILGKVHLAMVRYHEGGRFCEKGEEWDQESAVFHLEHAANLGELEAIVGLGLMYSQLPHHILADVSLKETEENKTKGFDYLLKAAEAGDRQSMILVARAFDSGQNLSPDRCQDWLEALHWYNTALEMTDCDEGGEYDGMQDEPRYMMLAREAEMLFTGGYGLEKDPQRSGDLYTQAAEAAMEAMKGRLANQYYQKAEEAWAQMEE

[5] = target: Tyrosine-protein kinase receptor UFO (Homo sapiens) (UniProt P30530); assay: Selectivity interaction (KinomeScan (DiscoverX)) EUB0000618a AXL; settings: at 10 µM
[6] = target: T3, Serine/threonine-protein kinase DCLK3 (Homo sapiens) (UniProt Q9C098); settings: at 10 µM
T3 sequence (whole entry): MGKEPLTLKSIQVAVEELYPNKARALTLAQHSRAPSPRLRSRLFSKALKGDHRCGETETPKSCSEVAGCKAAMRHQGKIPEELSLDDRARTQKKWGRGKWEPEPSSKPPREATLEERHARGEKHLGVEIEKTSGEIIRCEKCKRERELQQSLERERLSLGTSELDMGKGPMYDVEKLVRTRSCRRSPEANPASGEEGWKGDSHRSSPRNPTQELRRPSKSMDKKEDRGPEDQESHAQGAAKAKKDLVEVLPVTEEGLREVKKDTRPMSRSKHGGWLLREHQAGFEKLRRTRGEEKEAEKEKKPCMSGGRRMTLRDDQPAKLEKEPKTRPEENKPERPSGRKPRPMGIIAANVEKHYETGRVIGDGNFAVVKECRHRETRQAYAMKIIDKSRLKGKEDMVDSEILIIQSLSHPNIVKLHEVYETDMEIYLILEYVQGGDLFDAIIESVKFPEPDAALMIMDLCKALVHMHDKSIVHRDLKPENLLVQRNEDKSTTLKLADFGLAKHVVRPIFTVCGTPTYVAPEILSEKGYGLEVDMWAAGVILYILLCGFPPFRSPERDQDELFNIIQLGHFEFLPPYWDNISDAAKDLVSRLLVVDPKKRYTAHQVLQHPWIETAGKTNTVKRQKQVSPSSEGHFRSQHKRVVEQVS

Tyrosine-protein kinase receptor UFO (Homo sapiens), sequence (P30530 whole entry): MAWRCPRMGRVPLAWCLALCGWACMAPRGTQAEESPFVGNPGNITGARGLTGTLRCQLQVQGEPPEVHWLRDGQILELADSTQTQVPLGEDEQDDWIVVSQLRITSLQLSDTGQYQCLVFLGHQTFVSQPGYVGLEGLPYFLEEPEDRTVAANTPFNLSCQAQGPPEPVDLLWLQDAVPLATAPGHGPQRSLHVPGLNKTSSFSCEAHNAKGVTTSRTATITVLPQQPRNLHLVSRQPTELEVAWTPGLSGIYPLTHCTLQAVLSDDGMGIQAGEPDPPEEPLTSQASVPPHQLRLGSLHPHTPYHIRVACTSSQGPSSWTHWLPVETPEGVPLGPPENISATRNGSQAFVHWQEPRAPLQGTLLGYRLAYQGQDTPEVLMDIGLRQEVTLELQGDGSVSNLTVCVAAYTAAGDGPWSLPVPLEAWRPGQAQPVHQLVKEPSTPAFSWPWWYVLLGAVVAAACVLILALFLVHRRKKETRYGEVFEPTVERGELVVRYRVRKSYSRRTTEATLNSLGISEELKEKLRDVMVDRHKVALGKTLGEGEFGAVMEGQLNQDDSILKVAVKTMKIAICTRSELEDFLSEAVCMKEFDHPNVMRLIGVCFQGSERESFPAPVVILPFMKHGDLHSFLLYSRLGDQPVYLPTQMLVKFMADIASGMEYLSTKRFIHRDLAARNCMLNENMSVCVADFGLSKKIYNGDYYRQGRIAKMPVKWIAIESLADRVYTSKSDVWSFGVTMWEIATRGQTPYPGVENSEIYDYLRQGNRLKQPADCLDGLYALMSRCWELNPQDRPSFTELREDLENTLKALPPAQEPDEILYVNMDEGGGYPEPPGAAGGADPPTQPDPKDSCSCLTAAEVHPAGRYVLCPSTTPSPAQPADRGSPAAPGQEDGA
Serine/threonine-protein kinase 38-like (Homo sapiens), sequence (Q9Y2H1 2-464 limits assumed): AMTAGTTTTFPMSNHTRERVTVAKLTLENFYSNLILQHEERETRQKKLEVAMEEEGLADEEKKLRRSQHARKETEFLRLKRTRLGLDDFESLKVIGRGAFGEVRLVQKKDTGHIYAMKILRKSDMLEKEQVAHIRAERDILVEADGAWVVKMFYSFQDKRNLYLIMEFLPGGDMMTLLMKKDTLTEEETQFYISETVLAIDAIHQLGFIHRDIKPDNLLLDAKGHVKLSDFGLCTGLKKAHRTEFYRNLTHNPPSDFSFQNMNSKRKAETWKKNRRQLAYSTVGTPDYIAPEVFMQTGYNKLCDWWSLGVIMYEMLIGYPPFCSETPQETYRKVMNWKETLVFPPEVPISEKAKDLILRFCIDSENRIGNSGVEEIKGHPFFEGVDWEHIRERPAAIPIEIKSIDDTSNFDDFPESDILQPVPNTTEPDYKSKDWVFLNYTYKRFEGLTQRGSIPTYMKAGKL
Casein kinase I isoform delta, sequence (P48730 whole entry, looked up, canonical isoform): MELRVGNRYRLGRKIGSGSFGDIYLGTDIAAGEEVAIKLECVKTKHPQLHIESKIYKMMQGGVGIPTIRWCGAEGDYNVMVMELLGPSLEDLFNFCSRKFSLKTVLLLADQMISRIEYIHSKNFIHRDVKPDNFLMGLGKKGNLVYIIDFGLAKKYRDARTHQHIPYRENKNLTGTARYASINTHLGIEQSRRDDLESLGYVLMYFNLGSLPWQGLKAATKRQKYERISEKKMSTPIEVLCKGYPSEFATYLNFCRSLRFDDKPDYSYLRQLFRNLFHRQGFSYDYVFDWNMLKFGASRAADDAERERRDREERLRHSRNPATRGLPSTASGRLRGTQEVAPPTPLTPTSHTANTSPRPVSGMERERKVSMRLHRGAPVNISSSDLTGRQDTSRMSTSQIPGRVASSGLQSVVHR

`COc1cc(N(C)c2ccnc3ccc(C(F)(F)F)cc23)cc(OC)c1OC` showed a % binding [1] of 69%.
With `C=CC(=O)Nc1cccc(C(=O)Nc2ccc(Nc3cc(-c4[nH]c(SC)nc4C)ccn3)cc2)c1` the % of control ([2]; at 1 µM) was 44% and the % of control ([2]; at 5 µM) was 15%.
`N#Cc1cccc(-c2c[nH]c3ncnc(N4CCOCC4)c23)c1` gave a % of inhibition [3] of 22%.
`CNC(=O)Nc1ccc(-c2nc(N3CC4CCC(C3)O4)c3cnn(C4CCC5(CC4)OCCO5)c3n2)cc1` showed a % of inhibition [4] of 1%.
With `O[C@H]1CC[C@H](Nc2ncc3nc(Nc4c(F)cc(F)cc4F)n([C@H]4CCOC4)c3n2)CC1` the % of control [5] was 86%.
`CCN(CC)CCCCNc1ncc2cc(-c3cc(OC)cc(OC)c3)c(NC(=O)NC(C)(C)C)nc2n1` showed a % of control [6] of 100%.

Source: ChEMBL document CHEMBL5465560, “Selectivity Literature for EUbOPEN Chemogenomic Library” (2024)
